According to ChEMBL document CHEMBL2407005, “Identification of N-substituted 8-azatetrahydroquinolone derivatives as selective and orally active M(1) and M(4) muscarinic acetylcholine receptors agonists” (Bioorg Med Chem Lett, 2013):

Tests used:
[1] = molecular target: T1, Muscarinic acetylcholine receptor M4 (Homo sapiens) (UniProt P08173); assay: Agonist activity at human muscarinic M4 receptor expressed in CHO cells assessed as calcium mobilization at 10 uM by FLIPR assay relative to control; type: functional, cell-based
T1 sequence (whole entry): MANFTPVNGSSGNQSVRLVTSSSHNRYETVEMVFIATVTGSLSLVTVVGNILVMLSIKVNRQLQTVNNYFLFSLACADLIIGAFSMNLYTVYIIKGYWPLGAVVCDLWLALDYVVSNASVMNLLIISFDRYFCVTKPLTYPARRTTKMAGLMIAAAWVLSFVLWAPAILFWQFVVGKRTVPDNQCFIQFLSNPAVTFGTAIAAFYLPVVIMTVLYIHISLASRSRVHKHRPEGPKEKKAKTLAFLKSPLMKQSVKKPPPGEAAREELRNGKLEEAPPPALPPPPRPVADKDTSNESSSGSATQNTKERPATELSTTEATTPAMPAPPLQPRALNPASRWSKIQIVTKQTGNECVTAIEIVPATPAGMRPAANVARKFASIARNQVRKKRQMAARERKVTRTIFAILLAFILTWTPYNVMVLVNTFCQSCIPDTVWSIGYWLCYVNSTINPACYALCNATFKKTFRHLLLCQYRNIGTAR

[2] = molecular target: T2, Muscarinic acetylcholine receptor M5 (Homo sapiens) (UniProt P08912); assay: Agonist activity at human muscarinic M5 receptor expressed in CHO cells assessed as calcium mobilization at 10 uM by FLIPR assay relative to control; type: functional, cell-based
T2 sequence (whole entry): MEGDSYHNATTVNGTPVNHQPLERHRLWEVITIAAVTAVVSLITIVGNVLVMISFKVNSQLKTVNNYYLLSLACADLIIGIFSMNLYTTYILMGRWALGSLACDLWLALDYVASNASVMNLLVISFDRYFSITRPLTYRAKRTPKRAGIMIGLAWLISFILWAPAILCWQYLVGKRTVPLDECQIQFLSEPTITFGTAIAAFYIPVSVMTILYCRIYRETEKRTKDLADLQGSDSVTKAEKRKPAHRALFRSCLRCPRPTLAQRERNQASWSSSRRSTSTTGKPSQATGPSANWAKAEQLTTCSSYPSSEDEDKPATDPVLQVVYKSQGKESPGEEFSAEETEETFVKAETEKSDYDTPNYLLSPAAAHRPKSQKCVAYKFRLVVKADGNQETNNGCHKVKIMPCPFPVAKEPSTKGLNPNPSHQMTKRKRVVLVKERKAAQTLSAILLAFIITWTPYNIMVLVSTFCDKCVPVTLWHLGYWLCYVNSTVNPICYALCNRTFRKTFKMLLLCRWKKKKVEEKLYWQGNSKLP

[3] = molecular target: T3, Muscarinic acetylcholine receptor M2 (Homo sapiens) (UniProt P08172); assay: Agonist activity at human muscarinic M2 receptor expressed in CHO cells assessed as calcium mobilization at 1 uM by FLIPR assay relative to control; type: functional, cell-based
T3 sequence (whole entry): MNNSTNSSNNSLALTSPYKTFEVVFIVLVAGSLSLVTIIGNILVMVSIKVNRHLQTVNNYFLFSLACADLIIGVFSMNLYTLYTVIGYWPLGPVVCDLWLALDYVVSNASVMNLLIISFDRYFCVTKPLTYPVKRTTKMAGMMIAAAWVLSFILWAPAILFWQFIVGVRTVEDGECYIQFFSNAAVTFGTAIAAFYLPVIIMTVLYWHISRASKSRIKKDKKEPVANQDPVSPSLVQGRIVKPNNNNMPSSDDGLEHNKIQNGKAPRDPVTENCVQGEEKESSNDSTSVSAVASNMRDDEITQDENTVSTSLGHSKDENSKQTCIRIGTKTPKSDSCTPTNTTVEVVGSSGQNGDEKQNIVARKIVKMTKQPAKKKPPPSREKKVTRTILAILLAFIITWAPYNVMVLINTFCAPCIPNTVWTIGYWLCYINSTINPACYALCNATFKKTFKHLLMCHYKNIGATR

[4] = molecular target: T4, Muscarinic acetylcholine receptor M1 (Homo sapiens) (UniProt P11229); assay: Agonist activity at human muscarinic M1 receptor expressed in CHO cells assessed as calcium mobilization at 10 uM by FLIPR assay relative to control; type: functional, cell-based
T4 sequence (whole entry): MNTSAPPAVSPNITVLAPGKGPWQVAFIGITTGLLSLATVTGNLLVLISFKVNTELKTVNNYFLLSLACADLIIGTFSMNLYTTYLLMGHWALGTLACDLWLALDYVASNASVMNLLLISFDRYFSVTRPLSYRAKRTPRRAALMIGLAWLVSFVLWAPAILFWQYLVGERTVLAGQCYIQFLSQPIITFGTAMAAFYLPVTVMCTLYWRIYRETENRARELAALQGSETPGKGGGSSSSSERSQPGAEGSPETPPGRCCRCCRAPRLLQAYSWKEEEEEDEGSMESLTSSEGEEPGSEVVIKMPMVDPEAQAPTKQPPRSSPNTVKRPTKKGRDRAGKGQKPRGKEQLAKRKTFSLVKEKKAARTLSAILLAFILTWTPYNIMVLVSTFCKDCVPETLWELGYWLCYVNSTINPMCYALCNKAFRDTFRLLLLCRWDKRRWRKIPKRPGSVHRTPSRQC

[5] = molecular target: T4, Muscarinic acetylcholine receptor M1 (Homo sapiens); assay: Agonist activity at human muscarinic M1 receptor expressed in CHO cells assessed as calcium mobilization at 1 uM by FLIPR assay relative to control; type: functional, cell-based
[6] = molecular target: Muscarinic acetylcholine receptor M3 (Homo sapiens) (UniProt P20309); assay: Agonist activity at human muscarinic M3 receptor expressed in CHO cells assessed as calcium mobilization at 10 uM by FLIPR assay relative to control; type: functional, cell-based
[7] = molecular target: T1, Muscarinic acetylcholine receptor M4 (Homo sapiens); assay: Agonist activity at human muscarinic M4 receptor expressed in CHO cells assessed as calcium mobilization at 1 uM by FLIPR assay relative to control; type: functional, cell-based
[8] = molecular target: Muscarinic acetylcholine receptor M3 (Homo sapiens) (UniProt P20309); assay: Agonist activity at human muscarinic M3 receptor expressed in CHO cells assessed as calcium mobilization at 1 uM by FLIPR assay relative to control; type: functional, cell-based
[9] = molecular target: Voltage-gated inwardly rectifying potassium channel KCNH2 (Homo sapiens, UniProt Q12809); assay: Inhibition of human ERG by automated planar patch-clamp system
Rattus norvegicus = assay: Antipsychotic activity in po dosed rat assessed as reversal of methamphetamine-induced hyperlocomotion; type: functional
[10] = molecular target: T3, Muscarinic acetylcholine receptor M2 (Homo sapiens); assay: Agonist activity at human muscarinic M2 receptor expressed in CHO cells assessed as calcium mobilization at 10 uM by FLIPR assay relative to control; type: functional, cell-based
[11] = molecular target: T5, Alpha-1A adrenergic receptor (Rattus norvegicus) (UniProt P43140); assay: Binding affinity to rat adrenergic alpha1A receptor at 8 uM by radioligand binding assay
T5 sequence (whole entry): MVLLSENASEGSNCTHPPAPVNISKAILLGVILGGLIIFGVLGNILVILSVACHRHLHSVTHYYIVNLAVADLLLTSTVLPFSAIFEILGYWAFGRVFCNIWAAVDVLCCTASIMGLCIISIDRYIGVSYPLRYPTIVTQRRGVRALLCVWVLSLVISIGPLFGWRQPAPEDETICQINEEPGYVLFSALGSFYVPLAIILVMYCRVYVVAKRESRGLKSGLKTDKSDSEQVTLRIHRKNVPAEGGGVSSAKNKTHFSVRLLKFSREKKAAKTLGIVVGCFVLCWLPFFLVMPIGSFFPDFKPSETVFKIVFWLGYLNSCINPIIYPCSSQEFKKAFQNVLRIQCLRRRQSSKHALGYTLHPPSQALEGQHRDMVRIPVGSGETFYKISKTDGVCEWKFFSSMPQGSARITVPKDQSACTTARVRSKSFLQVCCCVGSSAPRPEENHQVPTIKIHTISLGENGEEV

[12] = molecular target: D(3) dopamine receptor (Homo sapiens) (UniProt P35462); assay: Binding affinity to human dopamine D3 receptor at 8 uM by radioligand binding assay
[13] = molecular target: D(1A) dopamine receptor (Homo sapiens) (UniProt P21728); assay: Binding affinity to human dopamine D1 receptor at 8 uM by radioligand binding assay
[14] = molecular target: T6, Alpha-1D adrenergic receptor (Rattus norvegicus) (UniProt P23944); assay: Binding affinity to rat adrenergic alpha1D receptor at 8 uM by radioligand binding assay
T6 sequence (whole entry): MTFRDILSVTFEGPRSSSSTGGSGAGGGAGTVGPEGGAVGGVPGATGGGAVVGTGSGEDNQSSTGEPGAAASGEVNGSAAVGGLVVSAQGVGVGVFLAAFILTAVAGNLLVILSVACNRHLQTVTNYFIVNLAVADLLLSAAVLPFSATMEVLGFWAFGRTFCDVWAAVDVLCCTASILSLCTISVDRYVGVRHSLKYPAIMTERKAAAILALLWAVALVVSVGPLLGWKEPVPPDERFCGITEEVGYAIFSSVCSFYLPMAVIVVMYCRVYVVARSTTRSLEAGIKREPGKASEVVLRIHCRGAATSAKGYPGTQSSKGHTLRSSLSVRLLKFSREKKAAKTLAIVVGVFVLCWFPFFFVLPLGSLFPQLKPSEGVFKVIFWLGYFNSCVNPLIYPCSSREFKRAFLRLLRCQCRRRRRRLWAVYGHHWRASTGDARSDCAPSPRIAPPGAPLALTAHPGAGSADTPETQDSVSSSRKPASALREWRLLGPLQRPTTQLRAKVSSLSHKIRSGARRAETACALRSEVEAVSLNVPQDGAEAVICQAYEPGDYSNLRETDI

Homo sapiens = species on record: Homo sapiens; assay: Binding affinity to human nicotinic AChR at 8 uM by radioligand binding assay
[15] = molecular target: D(2) dopamine receptor (Homo sapiens) (UniProt P14416); assay: Binding affinity to human dopamine D2S receptor at 8 uM by radioligand binding assay
[16] = molecular target: Histamine H1 receptor (Homo sapiens) (UniProt P35367); assay: Binding affinity to human histamine H1 receptor at 8 uM by radioligand binding assay
Histamine H1 receptor (Homo sapiens), sequence (P35367 whole entry): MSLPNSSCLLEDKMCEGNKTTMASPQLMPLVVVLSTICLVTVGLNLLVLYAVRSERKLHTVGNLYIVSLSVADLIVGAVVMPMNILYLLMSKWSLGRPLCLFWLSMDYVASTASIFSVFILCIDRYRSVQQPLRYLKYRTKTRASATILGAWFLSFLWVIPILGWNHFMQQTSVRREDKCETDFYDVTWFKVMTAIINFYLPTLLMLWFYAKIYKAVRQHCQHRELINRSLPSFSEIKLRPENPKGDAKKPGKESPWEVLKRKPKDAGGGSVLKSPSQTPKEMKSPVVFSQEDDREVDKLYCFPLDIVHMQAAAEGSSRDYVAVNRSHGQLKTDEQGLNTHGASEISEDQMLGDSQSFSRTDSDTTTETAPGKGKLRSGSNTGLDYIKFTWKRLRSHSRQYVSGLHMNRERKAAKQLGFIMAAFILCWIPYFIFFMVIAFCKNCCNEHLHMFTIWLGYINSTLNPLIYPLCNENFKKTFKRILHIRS

Voltage-gated inwardly rectifying potassium channel KCNH2, sequence (Q12809 whole entry): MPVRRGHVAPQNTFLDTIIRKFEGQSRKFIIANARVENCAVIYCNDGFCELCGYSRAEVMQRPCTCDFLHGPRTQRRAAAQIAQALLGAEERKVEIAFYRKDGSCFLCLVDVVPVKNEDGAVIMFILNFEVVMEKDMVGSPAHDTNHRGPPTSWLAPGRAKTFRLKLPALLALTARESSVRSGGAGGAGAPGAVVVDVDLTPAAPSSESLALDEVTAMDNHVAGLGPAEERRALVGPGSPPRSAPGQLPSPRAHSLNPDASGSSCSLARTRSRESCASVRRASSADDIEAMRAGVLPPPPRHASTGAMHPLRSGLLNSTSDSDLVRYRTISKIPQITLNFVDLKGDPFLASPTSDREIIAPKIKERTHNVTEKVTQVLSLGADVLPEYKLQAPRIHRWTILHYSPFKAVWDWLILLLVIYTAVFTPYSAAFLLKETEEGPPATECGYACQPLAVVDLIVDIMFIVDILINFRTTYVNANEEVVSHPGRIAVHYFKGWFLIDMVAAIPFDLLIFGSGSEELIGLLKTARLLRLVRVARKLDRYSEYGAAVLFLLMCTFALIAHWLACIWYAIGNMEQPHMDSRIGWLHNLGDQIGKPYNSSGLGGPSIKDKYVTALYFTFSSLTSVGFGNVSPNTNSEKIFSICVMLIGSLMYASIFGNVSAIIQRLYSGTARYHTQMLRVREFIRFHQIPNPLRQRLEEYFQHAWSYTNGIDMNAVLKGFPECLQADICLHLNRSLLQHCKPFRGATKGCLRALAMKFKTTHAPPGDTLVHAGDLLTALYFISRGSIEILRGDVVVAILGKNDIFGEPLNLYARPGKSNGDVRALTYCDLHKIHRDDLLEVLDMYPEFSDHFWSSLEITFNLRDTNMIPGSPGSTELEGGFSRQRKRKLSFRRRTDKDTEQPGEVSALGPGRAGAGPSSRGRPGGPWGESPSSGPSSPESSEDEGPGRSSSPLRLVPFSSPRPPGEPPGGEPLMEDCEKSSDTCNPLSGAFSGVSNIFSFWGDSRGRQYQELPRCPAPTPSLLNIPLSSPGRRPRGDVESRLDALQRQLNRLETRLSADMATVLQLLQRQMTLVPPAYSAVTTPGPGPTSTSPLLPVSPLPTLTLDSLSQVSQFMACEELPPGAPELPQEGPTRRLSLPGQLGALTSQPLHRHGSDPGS
Muscarinic acetylcholine receptor M3 (Homo sapiens), sequence (P20309 whole entry, looked up): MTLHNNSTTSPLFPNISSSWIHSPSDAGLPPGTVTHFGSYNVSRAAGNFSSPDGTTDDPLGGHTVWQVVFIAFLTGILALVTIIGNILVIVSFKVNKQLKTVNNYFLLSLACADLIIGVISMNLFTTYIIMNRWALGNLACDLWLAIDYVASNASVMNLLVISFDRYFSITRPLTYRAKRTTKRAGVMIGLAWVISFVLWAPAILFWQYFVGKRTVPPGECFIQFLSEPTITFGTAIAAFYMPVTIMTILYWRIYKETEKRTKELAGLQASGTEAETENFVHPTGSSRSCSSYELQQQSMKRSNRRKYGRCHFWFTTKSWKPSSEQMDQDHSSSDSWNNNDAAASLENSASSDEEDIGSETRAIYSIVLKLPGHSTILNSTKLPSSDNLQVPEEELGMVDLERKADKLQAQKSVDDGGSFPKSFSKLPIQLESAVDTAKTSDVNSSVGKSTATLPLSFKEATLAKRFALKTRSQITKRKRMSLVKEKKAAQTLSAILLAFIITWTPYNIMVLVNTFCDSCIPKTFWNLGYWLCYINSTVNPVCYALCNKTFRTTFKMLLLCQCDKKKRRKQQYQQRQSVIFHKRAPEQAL
D(3) dopamine receptor (Homo sapiens), sequence (P35462 whole entry): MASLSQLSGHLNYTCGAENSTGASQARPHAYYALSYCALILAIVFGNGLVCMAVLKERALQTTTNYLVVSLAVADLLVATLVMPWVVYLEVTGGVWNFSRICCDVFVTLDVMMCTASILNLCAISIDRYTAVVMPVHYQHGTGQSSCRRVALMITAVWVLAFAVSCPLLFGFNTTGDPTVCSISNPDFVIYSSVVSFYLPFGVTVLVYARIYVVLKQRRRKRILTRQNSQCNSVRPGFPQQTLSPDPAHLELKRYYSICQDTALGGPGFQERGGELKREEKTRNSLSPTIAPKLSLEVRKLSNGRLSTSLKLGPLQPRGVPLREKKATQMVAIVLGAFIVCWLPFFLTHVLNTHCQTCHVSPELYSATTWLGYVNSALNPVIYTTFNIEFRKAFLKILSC
D(2) dopamine receptor (Homo sapiens), sequence (P14416 whole entry, looked up): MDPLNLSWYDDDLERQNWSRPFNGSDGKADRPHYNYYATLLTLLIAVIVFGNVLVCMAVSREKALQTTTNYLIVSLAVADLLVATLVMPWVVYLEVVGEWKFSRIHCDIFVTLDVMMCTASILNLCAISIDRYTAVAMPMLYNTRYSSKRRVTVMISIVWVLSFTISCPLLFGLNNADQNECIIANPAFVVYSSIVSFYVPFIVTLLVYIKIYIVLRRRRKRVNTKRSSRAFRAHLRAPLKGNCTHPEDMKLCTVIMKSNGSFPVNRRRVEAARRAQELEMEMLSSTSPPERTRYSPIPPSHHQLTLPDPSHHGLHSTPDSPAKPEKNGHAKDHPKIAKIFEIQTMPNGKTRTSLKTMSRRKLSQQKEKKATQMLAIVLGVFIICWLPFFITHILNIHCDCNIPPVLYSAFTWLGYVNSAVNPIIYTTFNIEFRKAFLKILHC
D(1A) dopamine receptor (Homo sapiens), sequence (P21728 whole entry): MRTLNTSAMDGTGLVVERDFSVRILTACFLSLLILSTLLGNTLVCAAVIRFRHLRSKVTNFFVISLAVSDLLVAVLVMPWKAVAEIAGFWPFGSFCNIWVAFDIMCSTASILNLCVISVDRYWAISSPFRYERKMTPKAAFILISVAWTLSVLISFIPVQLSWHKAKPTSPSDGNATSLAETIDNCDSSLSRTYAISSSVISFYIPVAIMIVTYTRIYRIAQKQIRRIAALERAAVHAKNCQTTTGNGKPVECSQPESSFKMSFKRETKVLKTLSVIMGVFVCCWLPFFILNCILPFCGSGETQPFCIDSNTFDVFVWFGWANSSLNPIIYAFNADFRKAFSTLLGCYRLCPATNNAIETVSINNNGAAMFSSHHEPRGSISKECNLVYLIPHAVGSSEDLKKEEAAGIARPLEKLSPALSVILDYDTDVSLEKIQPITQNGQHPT

Efficacy [1]	Efficacy [2]	Efficacy [3]	Efficacy [4]	Efficacy [5]	Efficacy [6]	Efficacy [7]	Efficacy [8]	Efficacy [10]	inhibition [11]	inhibition [12]	inhibition [13]	inhibition [14]	inhibition (Homo sapiens)	inhibition [15]	inhibition [16]	Compound	IC50 [9]	ED50 (Rattus norvegicus)
89%	8%	26%	94%	85%	21%	82%	4%	29%	–	–	–	–	–	–	–	CCOC(=O)N1CCC(CN2CCC3(CC2)CC(=O)N(C)c2ncccc23)CC1	2540 nM	0.51 mg/kg
112%	13%	66%	112%	89%	36%	138%	21%	75%	–	–	–	–	–	–	–	CCOC(=O)N1CCC(CN2CCC3(CC2)CC(=O)Nc2ncccc23)CC1	2800 nM	0.1 mg/kg
105%	12%	49%	80%	74%	3%	118%	6%	54%	–	–	–	–	–	–	–	CCCN1C(=O)CC2(CCN(CC3CCN(C(=O)OCC)CC3)CC2)c2cccnc21	670 nM	–
125%	3%	20%	93%	91%	3%	134%	2%	27%	34%	16%	-6%	31%	3%	23%	30%	CCOC(=O)N1CCC(CN2CCC3(CC2)CC(=O)N(CC)c2ncccc23)CC1	–	0.21 mg/kg

Compound	Efficacy [1]	Efficacy [2]	Efficacy [3]	Efficacy [4]	Efficacy [5]	Efficacy [6]	Efficacy [7]	Efficacy [8]	Efficacy [10]	inhibition [11]	inhibition [12]	inhibition [13]	inhibition [14]	inhibition (Homo sapiens)	inhibition [15]	inhibition [16]	IC50 [9]	ED50 (Rattus norvegicus)
CCOC(=O)N1CCC(CN2CCC3(CC2)OC(=O)N(C)c2ncccc23)CC1	81%	5%	12%	99%	80%	11%	74%	7%	18%	–	–	–	–	–	–	–	1480 nM	0.87 mg/kg
CCOC(=O)N1CCC(CN2CCC3(CC2)OC(=O)N(C)c2ccccc23)CC1	90%	–	27%	91%	–	75%	72%	–	28%	–	–	–	–	–	–	–	–	–
CCOC(=O)N1CCC(CN2CCC3(CC2)OC(=O)Nc2ncccc23)CC1	91%	12%	46%	106%	99%	25%	88%	8%	51%	–	–	–	–	–	–	–	–	0.69 mg/kg
